Laboratory results as given in patent US11673877B2 (priority 2017, dated 2023).
≈ marks a conversion by molar mass, not a printed value. Read-outs that look alike come from different tables or passages of the source.

Tests used:
[1] = solid form, no method given
[2] = physchem; conditions: aqueous solution, aqueous buffer
[3] = tested on: PARP; conditions: read-out: inhibition of PARP activity EC50; whole cell assay; cited from earlier work
[4] = tested on: cancer cells with mutant BRCA-1 and BRCA-2; conditions: read-out: inhibition of proliferation CC50; cited from earlier work
[5] = for hygroscopicity from DVS curve: 5 to 95% RH; for solid form by XRPD after the DVS experiment: after adsorption/desorption cycle 5-95-5% RH
Experimental: DVS analyses were carried out TA Instruments Q5000 Dynamic Vapor Sorption analyzer. The instrument was calibrated with standard weights and a sodium bromide standard for humidity. Samples were analyzed at 25° C. with a maximum equilibration time of 60 minutes in 10% relative humidity (RH) steps from 5 to 95% RH (adsorption cycle) and from 95 to 5% RH (desorption cycle).
After the experiment the samples were analyzed by XRPD.

[6] = for water activity at which the form is the preferred form: slurry in water/DMSO mixtures, 2 days
Experimental: Powder samples were prepared in a low background Si holder using light manual pressure to keep the sample surfaces flat and level with the reference surface of the sample holder. Each sample was analyzed from 2 to 40° 2θ using a continuous scan of 6° 2θ per minute with an effective step size of 0.02° 2θ. Unless otherwise noted, XPRD studies were performed at room temperature and room humidity.
Slurry experiments designed to provide a range of water activities were carried out in solvent mixtures containing water and dimethylsulfoxide (Table 1). […] The samples were analyzed while wet to avoid changes, such as the hydrate converting to the anhydrate, from drying.

NC(=O)c1cccc2cn(-c3ccc([C@@H]4CCCNC4)cc3)nc12 [2-{4-[(3S)-piperidin-3-yl]phenyl}-2H-indazole-7-carboxamide, reference compound]
hygroscopicity [1]: highly hygroscopic

NC(=O)c1cccc2cn(-c3ccc([C@@H]4CCCNC4)cc3)nc12 [Niraparib, 2-{4-[(3S)-piperidin-3-yl]phenyl}-2H-indazole-7-carboxamide]
solubility [2]: 700 to 1100 µg/mL (≈ 2180 to 3430 µM) | EC50 [3]: […] | CC50 [4]: 10 to 100 nM

NC(=O)c1cccc2cn(-c3ccc([C@@H]4CCCNC4)cc3)nc12 [Form III, 2-{4-[(3S)-piperidin-3-yl]phenyl}-2H-indazole-7-carboxamide]
hygroscopicity from DVS curve ([5]; 25° C.): very hygroscopic | solid form by XRPD after the DVS experiment [5]: converted to the monohydrate | DVS weight gain ([5]; up to 95% RH, 25° C.): approximately 15.8% | water activity at which the form is the preferred form [6]: ≤ 0.11

Cc1ccc(S(=O)(=O)O)cc1.NC(=O)c1cccc2cn(-c3ccc([C@@H]4CCCNC4)cc3)nc12 [Niraparib tosylate monohydrate, 2-{4-[(3S)-piperidin-3-yl]phenyl}-2H-indazole 7-carboxamide 4-methylbenzenesulfonate hydrate (1:1.1)]
hygroscopicity from DVS curve ([5]; 25° C.): not hygroscopic | solid form by XRPD after the DVS experiment [5]: remained unchanged | water activity at which the form is the preferred form [6]: ≥ 0.22 | hygroscopicity [1]: non-hygroscopic

Cc1ccc(S(=O)(=O)O)cc1.NC(=O)c1cccc2cn(-c3ccc([C@@H]4CCCNC4)cc3)nc12 [niraparib tosylate, 2-{4-[(3S)-piperidin-3-yl]phenyl}-2H-indazole-7-carboxamide tosylate]
XRPD Result ([6]; 0 % water in DMSO, water activity 0, 2 days): anhydrate | XRPD Result ([6]; 17.2 % water in DMSO, water activity 0.22, 2 days): hydrate | XRPD Result ([6]; 27.6 % water in DMSO, water activity 0.38, 2 days): hydrate | XRPD Result ([6]; 43.3 % water in DMSO, water activity 0.60, 2 days): hydrate | XRPD Result ([6]; 82.8 % water in DMSO, water activity 0.84, 2 days): hydrate | XRPD Result ([6]; 100.0 % water, water activity 1.00, 2 days): hydrate
